Assays:
[1] = biological target: 5-hydroxytryptamine receptor 1D (Homo sapiens, UniProt P28221)
[2] = biological target: Glutamate receptor ionotropic, NMDA 1 (Rattus norvegicus, UniProt P35439)
[3] = biological target: Neuronal acetylcholine receptor subunit alpha-4 (Rattus norvegicus, UniProt P09483)
[4] = biological target: Histamine H1 receptor (Homo sapiens, UniProt P35367)
[5] = biological target: D(2) dopamine receptor (Homo sapiens, UniProt P14416)
[6] = biological target: Neuronal acetylcholine receptor subunit alpha-4 (Homo sapiens, UniProt P43681)
[7] = biological target: Vasopressin V2 receptor (Homo sapiens, UniProt P30518)
Chain of Vasopressin V2 receptor (P30518 whole entry): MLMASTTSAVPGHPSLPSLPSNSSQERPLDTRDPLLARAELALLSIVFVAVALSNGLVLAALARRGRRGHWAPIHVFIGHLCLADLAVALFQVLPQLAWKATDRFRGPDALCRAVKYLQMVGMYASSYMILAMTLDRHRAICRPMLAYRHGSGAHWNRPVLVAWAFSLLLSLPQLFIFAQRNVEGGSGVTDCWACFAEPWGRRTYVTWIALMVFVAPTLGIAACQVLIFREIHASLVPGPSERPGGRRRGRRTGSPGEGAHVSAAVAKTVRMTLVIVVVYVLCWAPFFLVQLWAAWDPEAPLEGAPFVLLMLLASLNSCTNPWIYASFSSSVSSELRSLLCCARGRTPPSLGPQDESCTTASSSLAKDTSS

[8] = biological target: 5-hydroxytryptamine receptor 7 (Homo sapiens, UniProt P34969)
Chain of 5-hydroxytryptamine receptor 7 (P34969 whole entry): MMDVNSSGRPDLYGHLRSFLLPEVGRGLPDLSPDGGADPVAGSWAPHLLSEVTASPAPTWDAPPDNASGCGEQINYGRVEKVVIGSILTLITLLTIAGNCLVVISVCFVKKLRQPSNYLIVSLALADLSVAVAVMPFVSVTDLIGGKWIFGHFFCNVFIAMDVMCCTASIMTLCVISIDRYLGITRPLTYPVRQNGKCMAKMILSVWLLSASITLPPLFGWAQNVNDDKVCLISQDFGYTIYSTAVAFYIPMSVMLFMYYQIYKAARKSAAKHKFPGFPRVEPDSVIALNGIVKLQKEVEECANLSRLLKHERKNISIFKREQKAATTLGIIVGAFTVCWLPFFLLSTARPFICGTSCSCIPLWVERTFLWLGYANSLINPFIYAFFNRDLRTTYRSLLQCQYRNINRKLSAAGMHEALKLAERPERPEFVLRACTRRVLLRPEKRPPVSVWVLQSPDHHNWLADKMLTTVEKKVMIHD

[9] = biological target: Sodium-dependent dopamine transporter (Bos taurus, UniProt P27922)
[10] = biological target: Metabotropic glutamate receptor 2 (Homo sapiens, UniProt Q14416)
[11] = biological target: Vasopressin V1b receptor (Homo sapiens, UniProt P47901)
Chain of Vasopressin V1b receptor (P47901 whole entry): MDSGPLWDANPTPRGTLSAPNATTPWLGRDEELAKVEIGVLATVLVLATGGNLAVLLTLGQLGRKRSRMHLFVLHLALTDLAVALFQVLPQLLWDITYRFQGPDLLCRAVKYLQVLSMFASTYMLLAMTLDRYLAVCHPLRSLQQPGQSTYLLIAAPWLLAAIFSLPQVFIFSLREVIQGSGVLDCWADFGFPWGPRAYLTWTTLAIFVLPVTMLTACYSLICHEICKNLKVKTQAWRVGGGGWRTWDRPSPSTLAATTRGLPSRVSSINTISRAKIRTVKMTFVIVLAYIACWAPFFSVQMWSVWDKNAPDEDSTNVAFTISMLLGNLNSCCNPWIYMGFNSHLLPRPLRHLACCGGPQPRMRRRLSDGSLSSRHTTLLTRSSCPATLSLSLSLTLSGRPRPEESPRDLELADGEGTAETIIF

[12] = biological target: 5-hydroxytryptamine receptor 1E (Homo sapiens, UniProt P28566)
[13] = biological target: 5-hydroxytryptamine receptor 1B (Homo sapiens, UniProt P28222)
Chain of 5-hydroxytryptamine receptor 1B (P28222 whole entry): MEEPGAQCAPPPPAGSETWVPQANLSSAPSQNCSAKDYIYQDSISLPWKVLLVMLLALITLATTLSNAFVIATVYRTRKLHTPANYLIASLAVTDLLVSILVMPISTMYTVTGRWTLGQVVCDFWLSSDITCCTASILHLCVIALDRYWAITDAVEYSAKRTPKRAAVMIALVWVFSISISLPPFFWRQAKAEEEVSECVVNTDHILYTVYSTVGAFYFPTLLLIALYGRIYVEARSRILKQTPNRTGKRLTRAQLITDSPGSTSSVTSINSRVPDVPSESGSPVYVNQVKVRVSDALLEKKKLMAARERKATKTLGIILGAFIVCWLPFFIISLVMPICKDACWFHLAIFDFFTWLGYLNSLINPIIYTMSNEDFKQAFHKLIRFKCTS

[14] = biological target: Metabotropic glutamate receptor 5 (Homo sapiens, UniProt P41594)
[15] = biological target: 5-hydroxytryptamine receptor 5A (Homo sapiens, UniProt P47898)
Chain of 5-hydroxytryptamine receptor 5A (P47898 whole entry): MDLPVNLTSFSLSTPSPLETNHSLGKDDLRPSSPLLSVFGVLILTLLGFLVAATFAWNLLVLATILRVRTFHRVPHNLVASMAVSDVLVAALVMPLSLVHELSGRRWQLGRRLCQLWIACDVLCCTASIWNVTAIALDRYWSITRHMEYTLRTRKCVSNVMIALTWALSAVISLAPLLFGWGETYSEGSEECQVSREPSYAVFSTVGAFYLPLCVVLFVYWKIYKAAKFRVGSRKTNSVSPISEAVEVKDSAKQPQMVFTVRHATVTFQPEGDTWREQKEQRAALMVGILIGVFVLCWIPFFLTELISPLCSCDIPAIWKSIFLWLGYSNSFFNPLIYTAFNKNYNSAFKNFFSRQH

[16] = biological target: Muscarinic acetylcholine receptor M1 (Homo sapiens, UniProt P11229)
[17] = biological target: D(3) dopamine receptor (Homo sapiens, UniProt P35462)
Chain of D(3) dopamine receptor (P35462 as listed by the source): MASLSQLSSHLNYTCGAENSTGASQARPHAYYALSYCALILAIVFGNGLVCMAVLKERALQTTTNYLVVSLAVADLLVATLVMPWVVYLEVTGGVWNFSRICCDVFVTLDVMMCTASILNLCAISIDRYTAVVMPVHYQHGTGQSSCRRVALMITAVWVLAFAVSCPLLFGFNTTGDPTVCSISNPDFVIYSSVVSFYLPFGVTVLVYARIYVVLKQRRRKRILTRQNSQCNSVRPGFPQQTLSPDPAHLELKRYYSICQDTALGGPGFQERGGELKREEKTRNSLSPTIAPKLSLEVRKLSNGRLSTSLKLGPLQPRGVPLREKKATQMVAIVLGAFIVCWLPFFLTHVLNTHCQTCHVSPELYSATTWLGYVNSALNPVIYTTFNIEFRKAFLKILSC

[18] = biological target: Muscarinic acetylcholine receptor M5 (Homo sapiens, UniProt P08912)
[19] = biological target: D(4) dopamine receptor (Rattus norvegicus, UniProt P30729)
[20] = biological target: Gamma-aminobutyric acid receptor subunit alpha-1 (Rattus norvegicus, UniProt P62813)
[21] = biological target: Neuronal acetylcholine receptor subunit alpha-3 (Homo sapiens, UniProt P32297)
[22] = biological target: Alpha-1A adrenergic receptor (Homo sapiens, UniProt P35348)
Chain of Alpha-1A adrenergic receptor (P35348 whole entry): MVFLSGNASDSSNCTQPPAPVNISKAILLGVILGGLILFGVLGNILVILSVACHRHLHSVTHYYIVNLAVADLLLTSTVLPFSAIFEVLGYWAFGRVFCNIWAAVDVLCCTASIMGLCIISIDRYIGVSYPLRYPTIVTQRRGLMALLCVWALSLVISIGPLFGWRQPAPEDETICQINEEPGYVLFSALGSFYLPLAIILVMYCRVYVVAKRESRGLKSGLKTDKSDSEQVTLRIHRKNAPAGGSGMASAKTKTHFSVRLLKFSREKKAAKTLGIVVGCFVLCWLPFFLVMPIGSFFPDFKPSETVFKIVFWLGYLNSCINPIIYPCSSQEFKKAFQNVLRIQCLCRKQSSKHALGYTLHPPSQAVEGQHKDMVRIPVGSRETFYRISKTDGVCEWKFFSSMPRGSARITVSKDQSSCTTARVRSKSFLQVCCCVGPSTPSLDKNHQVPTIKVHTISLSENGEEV

[23] = biological target: 5-hydroxytryptamine receptor 2B (Homo sapiens, UniProt P41595)
[24] = biological target: Neuronal acetylcholine receptor subunit alpha-2 (Homo sapiens, UniProt Q15822)
[25] = biological target: Beta-2 adrenergic receptor (Rattus norvegicus, UniProt P10608)
[26] = biological target: 5-hydroxytryptamine receptor 2C (Rattus norvegicus, UniProt P08909)
[27] = biological target: Metabotropic glutamate receptor 6 (Homo sapiens, UniProt O15303)
[28] = biological target: Muscarinic acetylcholine receptor M3 (Homo sapiens, UniProt P20309)
[29] = biological target: 5-hydroxytryptamine receptor 1A (Homo sapiens, UniProt P08908)
[30] = biological target: Muscarinic acetylcholine receptor M4 (Homo sapiens, UniProt P08173)
[31] = biological target: D(1A) dopamine receptor (Homo sapiens, UniProt P21728)
[32] = biological target: Beta-1 adrenergic receptor (Rattus norvegicus, UniProt P18090)
Chain of Beta-1 adrenergic receptor (P18090 whole entry): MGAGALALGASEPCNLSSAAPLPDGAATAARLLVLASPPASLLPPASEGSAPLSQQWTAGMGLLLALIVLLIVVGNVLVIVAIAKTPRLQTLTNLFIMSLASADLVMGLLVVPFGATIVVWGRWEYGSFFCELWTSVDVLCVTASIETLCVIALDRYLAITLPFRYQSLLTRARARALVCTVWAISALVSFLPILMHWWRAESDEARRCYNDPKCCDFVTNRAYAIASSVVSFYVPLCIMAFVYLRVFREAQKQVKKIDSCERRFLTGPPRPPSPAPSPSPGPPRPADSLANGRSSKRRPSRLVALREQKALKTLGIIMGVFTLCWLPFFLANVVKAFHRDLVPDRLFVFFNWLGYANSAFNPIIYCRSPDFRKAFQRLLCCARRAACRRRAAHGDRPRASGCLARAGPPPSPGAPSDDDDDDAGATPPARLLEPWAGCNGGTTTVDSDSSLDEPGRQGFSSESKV

[33] = biological target: Metabotropic glutamate receptor 4 (Homo sapiens, UniProt Q14833)
[34] = biological target: 5-hydroxytryptamine receptor 6 (Homo sapiens, UniProt P50406)
[35] = biological target: 5-hydroxytryptamine receptor 3A (Homo sapiens, UniProt P46098)
[36] = biological target: Metabotropic glutamate receptor 8 (Homo sapiens, UniProt O00222)
[37] = biological target: Muscarinic acetylcholine receptor M2 (Homo sapiens, UniProt P08172)
[38] = biological target: D(1B) dopamine receptor (Homo sapiens, UniProt P21918)
[39] = biological target: 5-hydroxytryptamine receptor 2A (Rattus norvegicus, UniProt P14842)
Chain of 5-hydroxytryptamine receptor 2A (P14842 whole entry): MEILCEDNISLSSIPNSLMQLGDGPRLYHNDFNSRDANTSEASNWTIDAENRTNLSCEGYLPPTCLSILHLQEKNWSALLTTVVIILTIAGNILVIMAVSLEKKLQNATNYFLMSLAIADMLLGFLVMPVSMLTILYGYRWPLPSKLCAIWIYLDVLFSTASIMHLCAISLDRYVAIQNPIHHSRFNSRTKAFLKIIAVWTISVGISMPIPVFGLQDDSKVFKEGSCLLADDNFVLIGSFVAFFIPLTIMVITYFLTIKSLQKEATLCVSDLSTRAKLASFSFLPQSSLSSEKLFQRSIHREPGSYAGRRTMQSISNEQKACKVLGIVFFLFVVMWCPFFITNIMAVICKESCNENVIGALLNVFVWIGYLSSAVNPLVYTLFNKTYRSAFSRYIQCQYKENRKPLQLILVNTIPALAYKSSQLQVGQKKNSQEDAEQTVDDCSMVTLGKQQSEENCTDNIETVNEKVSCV

[40] = biological target: Metabotropic glutamate receptor 1 (Homo sapiens, UniProt Q13255)

Measured: Ki

Chain of 5-hydroxytryptamine receptor 1D (P28221 whole entry): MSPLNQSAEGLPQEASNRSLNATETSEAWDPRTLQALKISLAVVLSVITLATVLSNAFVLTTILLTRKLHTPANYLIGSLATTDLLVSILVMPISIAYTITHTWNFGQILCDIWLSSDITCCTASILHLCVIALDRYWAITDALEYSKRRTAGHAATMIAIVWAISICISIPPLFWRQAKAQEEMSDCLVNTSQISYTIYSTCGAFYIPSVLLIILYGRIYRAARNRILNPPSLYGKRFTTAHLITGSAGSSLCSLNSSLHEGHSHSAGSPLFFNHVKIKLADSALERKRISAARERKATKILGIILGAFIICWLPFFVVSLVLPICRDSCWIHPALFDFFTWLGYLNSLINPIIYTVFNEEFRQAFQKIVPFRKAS
Chain of Histamine H1 receptor (P35367 whole entry): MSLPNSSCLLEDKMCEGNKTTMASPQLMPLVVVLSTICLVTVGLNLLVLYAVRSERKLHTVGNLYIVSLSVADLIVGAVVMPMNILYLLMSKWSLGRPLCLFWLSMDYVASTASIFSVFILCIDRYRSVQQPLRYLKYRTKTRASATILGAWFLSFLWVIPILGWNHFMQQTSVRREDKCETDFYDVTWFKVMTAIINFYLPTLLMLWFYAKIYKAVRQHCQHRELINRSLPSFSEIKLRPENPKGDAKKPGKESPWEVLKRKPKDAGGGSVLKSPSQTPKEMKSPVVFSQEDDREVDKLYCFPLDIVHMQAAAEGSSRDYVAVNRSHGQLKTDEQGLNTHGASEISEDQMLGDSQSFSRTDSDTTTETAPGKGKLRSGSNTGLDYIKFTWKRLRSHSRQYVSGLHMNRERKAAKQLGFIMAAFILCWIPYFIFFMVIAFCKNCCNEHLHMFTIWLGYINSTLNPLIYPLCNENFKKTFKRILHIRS

COC(=O)[C@@H]1C[C@H](OC(C)=O)C(=O)[C@H]2[C@@]1(C)CC[C@H]1C(=O)O[C@H](c3ccoc3)C[C@]21C [2S,4aR,6a(R,7R,9S,10aS,10bR)-9-(acetyloxy)-2-(furan-3-yl)dodecahydro-6a,10b-dimethyl-4,10-dioxo-2H-naphtho[2,1-c]pyran-7-carboxylic acid methyl ester]
> 10 µM: all assays above
